# Read-outs that look alike come from different tables or passages of the source.
# Columns and labels:
# [1] = cited from earlier work
# [2] = test system: DNA polymerases and reverse transcriptases; experiment: Standing start primer-extension assay; assay type: biochemical
# Protocol: FIG. 8. […] Subsequent removal of the side chain allows primer extension to continue. […] Incubation is for 2 min with the template primer combination.
# (§1) Thirteen DNA polymerases and reverse transcriptases performing well last time were tested again for their abilities to incorporate the triphosphate carrying a Bodipy 576/589 fluor (FIG. 6). The incubation time was extended to 30 min to see the boundaries for the enzymes to still consume all the primer s without leading to N+2 bands.
# (§2) Gamma-^32P-labeled primer (2.5 pmol), cold primer (22.5 pmol) and template (30 pmol) were annealed by incubation at 95° C. for 5 min in various reaction buffer and slowly cooled to room temperature, followed by the addition of various DNA polymerase and reverse transcriptases. The extension was initiated by adding MJK's nucleoside triphosphates (MJ-008-065) (final concentration of 100 μM). After 30 min, the reaction was quenched by 10 mM EDTA in formamide loading buffer (20 μL); products were resolved by 14% PAGE.
# Bst DNA polymerases = biological target: T1, Bst DNA polymerases (Geobacillus stearothermophilus, UniProt P52026); experiment: Standing start primer-extension assay; assay type: biochemical; details: 30 min incubation, triphosphate 100 μM, Template AA
# T1 sequence (P52026 1-876): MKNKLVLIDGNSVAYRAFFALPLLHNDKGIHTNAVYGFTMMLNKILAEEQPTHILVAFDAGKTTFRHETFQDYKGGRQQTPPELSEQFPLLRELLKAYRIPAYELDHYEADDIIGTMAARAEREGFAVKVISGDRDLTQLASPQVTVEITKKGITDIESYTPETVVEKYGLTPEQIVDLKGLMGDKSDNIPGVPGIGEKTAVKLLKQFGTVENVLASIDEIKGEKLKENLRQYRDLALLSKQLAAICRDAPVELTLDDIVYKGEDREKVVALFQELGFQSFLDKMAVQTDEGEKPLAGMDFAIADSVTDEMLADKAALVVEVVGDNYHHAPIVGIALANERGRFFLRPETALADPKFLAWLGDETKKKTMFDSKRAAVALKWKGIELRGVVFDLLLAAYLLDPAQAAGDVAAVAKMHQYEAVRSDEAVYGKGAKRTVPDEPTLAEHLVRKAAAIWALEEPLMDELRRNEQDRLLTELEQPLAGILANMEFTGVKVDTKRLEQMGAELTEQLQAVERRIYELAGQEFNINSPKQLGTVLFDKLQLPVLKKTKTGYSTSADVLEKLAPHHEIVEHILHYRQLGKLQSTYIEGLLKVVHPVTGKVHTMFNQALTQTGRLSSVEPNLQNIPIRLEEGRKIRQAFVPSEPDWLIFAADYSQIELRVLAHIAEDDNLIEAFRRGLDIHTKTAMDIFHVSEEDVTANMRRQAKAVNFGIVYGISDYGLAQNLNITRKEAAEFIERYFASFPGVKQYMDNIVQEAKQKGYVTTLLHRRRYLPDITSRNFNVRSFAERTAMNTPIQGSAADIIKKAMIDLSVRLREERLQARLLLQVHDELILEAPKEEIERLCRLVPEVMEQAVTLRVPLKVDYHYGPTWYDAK
# Protocol: as §1, §2
# Deep Vent (exo-) = Deep Vent (exo-) (Pyrococcus sp., UniProt Q51334, D141A/DEL493-1029/E143A); experiment: Standing start primer-extension assay; assay type: biochemical; details: 30 min incubation, triphosphate 100 μM, Template AA
# Protocol: as §1, §2
# [3] = Elimination of scar from triphosphate-aldehyde, analyzed by ion-exchange HPLC; assay type: physicochemical; details: 55° C.
# Protocol: To develop the reagents for elimination of scar triphosphate-aldehyde which was obtained from the treatment of compound 17 with 10 mM NaIO4 was used as model compound. A variety of conditions were explored that might eliminate the scar and the reaction was analyzed by ion-exchange HPLC (buffer A: water; buffer B: 1M NH4HCO3; gradient 0˜35% B over 20 min).
# Sequence of Deep Vent (exo-) (Q51334 other isoform, or with tags, fused parts or gaps D141A/E143A/DEL493-1029): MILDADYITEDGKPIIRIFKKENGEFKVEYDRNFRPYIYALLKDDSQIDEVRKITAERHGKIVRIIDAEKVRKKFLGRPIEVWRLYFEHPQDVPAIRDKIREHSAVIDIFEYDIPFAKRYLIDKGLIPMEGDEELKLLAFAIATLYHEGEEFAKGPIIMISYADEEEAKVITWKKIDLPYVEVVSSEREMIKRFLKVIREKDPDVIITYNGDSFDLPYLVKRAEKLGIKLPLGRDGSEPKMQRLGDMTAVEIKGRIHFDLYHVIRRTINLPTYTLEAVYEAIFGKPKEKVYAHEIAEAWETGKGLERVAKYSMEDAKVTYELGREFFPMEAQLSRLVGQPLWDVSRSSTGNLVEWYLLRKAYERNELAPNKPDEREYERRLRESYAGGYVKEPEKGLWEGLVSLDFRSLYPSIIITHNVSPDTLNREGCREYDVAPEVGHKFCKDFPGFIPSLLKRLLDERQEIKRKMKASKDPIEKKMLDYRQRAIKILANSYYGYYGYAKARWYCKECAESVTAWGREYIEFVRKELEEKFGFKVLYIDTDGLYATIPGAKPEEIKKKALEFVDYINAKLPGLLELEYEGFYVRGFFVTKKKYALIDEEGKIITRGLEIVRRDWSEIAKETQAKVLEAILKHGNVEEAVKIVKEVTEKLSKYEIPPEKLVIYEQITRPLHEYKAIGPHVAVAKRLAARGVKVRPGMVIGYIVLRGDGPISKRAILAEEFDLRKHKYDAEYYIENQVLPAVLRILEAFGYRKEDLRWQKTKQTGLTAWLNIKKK
compound,measurement,setting,value
Nc1ncc([C@@H]2O[C@H](CO)[C@@H](O)[C@H]2O)c(=O)[nH]1 [pseudoisocytidine],pKa,[1]; deprotonation of N3,9.0
"BODIPY 576/589 Labeled 1-(5-amino-3,4-dihydroxypentyl)-2′-deoxy-pseudouridine-5′-triphosphate [Compound 18]",extension of a primer on a template calling for two consecutive T analogs,"[2]; 2 min incubation, no 3′-ONH2 group (FIG. 8)",stops with certain of the indicated polymerases after the addition of one T analog
same,consume all the primer without leading to N+2 bands,"[2]; thirteen enzymes, 30 min incubation, triphosphate 100 μM, Template AA",most of the polymerases and reverse transcriptases might achieve this goal
same,N+2 products,Bst DNA polymerases,only trace amount
same,N+2 products,Deep Vent (exo-),only trace amount
O=c1[nH]cc([C@@H]2O[C@H](CO)[C@@H](O)[C@H]2O)c(=O)[nH]1 [pseudouridine],pKa,[1]; cite of deprotonation unclear,9.1
Nc1ncnc2c([C@@H]3O[C@H](CO)[C@@H](O)[C@H]3O)[nH]nc12 [formycin A],pKa,[1]; deprotonation of N7,9.6
O=c1[nH]cnc2c([C@@H]3O[C@H](CO)[C@@H](O)[C@H]3O)n[nH]c12 [formycin B],pKa,[1]; deprotonation of N7,10.4
O=CCCn1cc([C@H]2C[C@H](O)[C@@H](COP(=O)(O)OP(=O)(O)OP(=O)(O)O)O2)c(=O)[nH]c1=O [triphosphate-aldehyde],% Product,"[3]; A: 100 mM glycine, pH 9.0, 10 min",13%
same,% Product,"[3]; A: 100 mM glycine, pH 9.0, 20 min",20%
same,% Product,"[3]; A: 100 mM glycine, pH 9.0, 30 min",30%
same,% Product,"[3]; A: 100 mM glycine, pH 10.0, 10 min",35%
same,% Product,"[3]; A: 100 mM glycine, pH 10.0, 20 min",70%
same,% Product,"[3]; A: 100 mM glycine, pH 10.0, 30 min",87%
same,% Product,"[3]; A: 100 mM glycine, pH 11.0, 10 min",18%
same,% Product,"[3]; A: 100 mM glycine, pH 11.0, 20 min",52%
same,% Product,"[3]; A: 100 mM glycine, pH 11.0, 30 min",92%
same,% Product,"[3]; B: 500 mM morpholine, pH 9.0, 10 min",73%
same,% Product,"[3]; B: 500 mM morpholine, pH 9.0, 20 min",98%
same,% Product,"[3]; B: 500 mM morpholine, pH 10.0, 10 min",70%
same,% Product,"[3]; B: 500 mM morpholine, pH 10.0, 20 min",98%
same,% Product,"[3]; B: 500 mM morpholine, pH 10.5, 10 min",50%
same,% Product,"[3]; B: 500 mM morpholine, pH 10.5, 20 min",92%
same,% Product,"[3]; B: 500 mM morpholine, pH 10.5, 30 min",99%
same,% Product,"[3]; B: 500 mM morpholine, pH 11.2, 10 min",40%
same,% Product,"[3]; B: 500 mM morpholine, pH 11.2, 20 min",80%
same,% Product,"[3]; B: 500 mM morpholine, pH 11.2, 30 min",94%
same,% Product,"[3]; C: 100 mM pyrrolidine, pH 9.0, 5 min",32%
same,% Product,"[3]; C: 100 mM pyrrolidine, pH 9.0, 10 min",67%
same,% Product,"[3]; C: 100 mM pyrrolidine, pH 10.0, 5 min",90%
same,% Product,"[3]; C: 100 mM pyrrolidine, pH 10.0, 10 min",99%
same,% Product,"[3]; C: 100 mM pyrrolidine, pH 11.0, 5 min",99%
same,% Product,"[3]; C: 100 mM pyrrolidine, pH 11.0, 10 min",99%
